Source: patent publication US20120289523A1, “PYRROLO [3,2-E] [1,2,4] TRIAZOLO [1,5-A] PYRIMIDINES DERIVATIVES AS INHIBITORS OF MICROGLIA ACTIVATION” (BTG INTERNATIONAL LIMITED, priority 2009, published 2012)

Legend:
[1] = tested on: Mouse BALB/c monocyte macrophages, J774.2; assay: Inhibition of β-amyloid induced activation: TNF-alpha levels in media (ELISA or Meso Scale Discovery kit); assay type: cell-based; conditions: J774.2, 24 h, J774.2 cells, 20 μM Aβ(1-42), read-out: IC50 (μM) TNF-α
Description: (§1) Mouse BALB/c monocyte macrophages, J774.2, {ECACC 85011428} were grown and sub-cultured in cell media (DMEM containing 10% FBS, 1% L-glutamine and 1% penicillin/streptomycin). The J774 cells were plated at 100,000 cells/well in 50 μl cell media on 96 well plates and placed in a 37° C., 5% CO2 incubator overnight prior to experiments.
(§2) The addition of Aβ(1-42) and compounds to the J774 cells was performed using a Biotek precision 2000 liquid handling instrument. 3 μl of compound in DMSO ranging from 8 μM to 6 mM were pipetted into a “daughter plate” containing 294 μl of cell media and mixed thoroughly. 3 μl of Aβ(1-42) in DMSO at 4 mM was then added to the “daughter plate” and mixed thoroughly. 50 μl was then removed from the “daughter plate” and added to the plated J774 cells. The final concentrations in the wells containing 100 μl cell media were 20 μM Aβ(1-42), the compounds ranged from ˜40 nM to 30 μM in 1% DMSO and also in the presence of 50 U/ml Interferon gamma. The plates were incubated for 24 hours in a 37° C., 5% CO2 incubator. After 24 hours incubation the media from the wells were collected and stored at −20° C. until required for testing.
The TNF-alpha levels in the media were tested using a TNF-alpha ELISA (R&D Systems MTA00) or Meso Scale Discovery MS6000 Mouse Proinflammatory-7 kit, using the manufacturers instructions.

[2] = tested on: Mouse BALB/c monocyte macrophages, J774.2; assay: Inhibition of β-amyloid induced activation: nitric oxide release (Griess assay); assay type: cell-based; conditions: 20 μM Aβ(1-42), 50 U/ml Interferon gamma, 24 hours
Description: as §1, §2
The nitric oxide levels in the media were tested using the Griess assay (Promega G2930) using the manufacturer's instructions.

CYP3A4 = molecular target: T1, CYP3A4 (Homo sapiens, UniProt P08684); assay: Inhibition of cytochrome P450 (P450-Glo) CYP3A4; assay type: biochemical; conditions: human recombinant enzyme, read-out: CYP450 Inhibition (IC50 microM) 3A4
T1 construct: purchased Promega Corporation
T1 sequence (P08684 whole entry): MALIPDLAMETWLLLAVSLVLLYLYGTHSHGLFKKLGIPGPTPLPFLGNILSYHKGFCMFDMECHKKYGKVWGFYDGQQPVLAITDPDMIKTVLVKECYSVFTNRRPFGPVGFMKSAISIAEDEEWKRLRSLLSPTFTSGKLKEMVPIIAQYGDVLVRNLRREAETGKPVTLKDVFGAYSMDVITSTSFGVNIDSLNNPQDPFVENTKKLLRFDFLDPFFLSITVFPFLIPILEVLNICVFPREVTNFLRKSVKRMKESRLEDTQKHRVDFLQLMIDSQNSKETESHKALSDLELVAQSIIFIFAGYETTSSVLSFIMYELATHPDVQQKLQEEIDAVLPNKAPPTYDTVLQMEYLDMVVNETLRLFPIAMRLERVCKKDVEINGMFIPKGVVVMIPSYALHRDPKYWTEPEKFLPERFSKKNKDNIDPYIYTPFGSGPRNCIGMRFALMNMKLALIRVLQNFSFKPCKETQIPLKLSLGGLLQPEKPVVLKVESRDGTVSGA
Description: (§3) Tests were carried out using human recombinant enzymes CYP1A2, CYP2C9, CYP2C19, CYP2D6 and CYP3A4 and P450-Glo™ screening system (Promega Corporation). Briefly, using a white opaque 96-well plate, one-fourth of the final reaction volume of a 4×cytochrome P450 reaction mixture containing the requisite luminogenic substrate was combined with an equal volume of the test compound (0.03-30 μM) or known inhibitor control at a 4×concentration to give one-half of the final reaction volume. A 10-minute pre-incubation was performed. One-half the final volume of the 2×NADPH regeneration system was then added to initiate the CYP reactions, and bring all components to their 1×target concentrations. The plate is incubated at 37° C. for 30 minutes. The luciferin detection reagent was added which stops the CYP reaction and initiates luminescence. The signal was allowed to stabilize for 20 minutes at room temperature and then the luminescence was read. The net CYP-dependent luminescence was calculated by subtracting the average luminescence of the control reactions from the CYP-containing reactions. Changes from the average net signal of untreated CYP reactions for reactions with a test compound reflect the inhibition of CYP activity by this compound.

[3] = Metabolism of compounds, rat liver microsomes; assay type: in vitro ADME; conditions: 1 μM compound, 0.3 mg/ml protein, 60 minutes at 37° C.; for half-life at 1 μM: rat, pooled liver microsomes, read-out: Microsomes t1/2 (mins) Rat
Description: (§4) These were measured by incubating 1 μM test compound with pooled liver microsomes (0.3 mg/ml) protein for 60 minutes at 37° C. Samples were analysed by HPLC-MS/MS (Kuhnz, W. and Gieschen, H. (1998) Drug Metab. Dispos., 26, 1120-1127).

CYP1A2 = molecular target: T2, CYP1A2 (Homo sapiens, UniProt P05177); assay: Inhibition of cytochrome P450 (P450-Glo) CYP1A2; assay type: biochemical; conditions: human recombinant enzyme, read-out: CYP450 Inhibition (IC50 microM) 1A2
T2 construct: purchased Promega Corporation
T2 sequence (P05177 1-516): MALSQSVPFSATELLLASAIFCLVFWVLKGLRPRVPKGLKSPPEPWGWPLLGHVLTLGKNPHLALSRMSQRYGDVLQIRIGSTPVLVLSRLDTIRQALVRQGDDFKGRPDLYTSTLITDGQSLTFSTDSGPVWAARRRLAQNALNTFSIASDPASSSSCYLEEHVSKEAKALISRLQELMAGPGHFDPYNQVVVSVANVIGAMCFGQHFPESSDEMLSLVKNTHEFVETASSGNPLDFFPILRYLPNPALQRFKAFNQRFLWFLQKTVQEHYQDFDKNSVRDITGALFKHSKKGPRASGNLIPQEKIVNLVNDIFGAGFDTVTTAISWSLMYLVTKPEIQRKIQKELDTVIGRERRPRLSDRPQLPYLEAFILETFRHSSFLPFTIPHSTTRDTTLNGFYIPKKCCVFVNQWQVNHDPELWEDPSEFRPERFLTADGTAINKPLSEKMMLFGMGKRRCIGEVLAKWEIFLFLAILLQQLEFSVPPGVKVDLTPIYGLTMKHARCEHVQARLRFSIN
Description: as §3, with “Briefly, using a white opaque 96-well plate, one-fourth of the final reaction volume of a 4×cytochrome P450 reaction mixture containing the requisite luminogenic substrate was combined with an equal volume of the test compound (0.03-30 μM) or known inhibitor control at a 4×concentration to give one-half of the final reaction volume.” left out

CYP2C19 = molecular target: T3, CYP2C19 (Homo sapiens, UniProt P33261); assay: Inhibition of cytochrome P450 (P450-Glo) CYP2C19; assay type: biochemical; conditions: human recombinant enzyme, read-out: CYP450 Inhibition (IC50 microM) 2C19
T3 construct: purchased Promega Corporation
T3 sequence (P33261 whole entry): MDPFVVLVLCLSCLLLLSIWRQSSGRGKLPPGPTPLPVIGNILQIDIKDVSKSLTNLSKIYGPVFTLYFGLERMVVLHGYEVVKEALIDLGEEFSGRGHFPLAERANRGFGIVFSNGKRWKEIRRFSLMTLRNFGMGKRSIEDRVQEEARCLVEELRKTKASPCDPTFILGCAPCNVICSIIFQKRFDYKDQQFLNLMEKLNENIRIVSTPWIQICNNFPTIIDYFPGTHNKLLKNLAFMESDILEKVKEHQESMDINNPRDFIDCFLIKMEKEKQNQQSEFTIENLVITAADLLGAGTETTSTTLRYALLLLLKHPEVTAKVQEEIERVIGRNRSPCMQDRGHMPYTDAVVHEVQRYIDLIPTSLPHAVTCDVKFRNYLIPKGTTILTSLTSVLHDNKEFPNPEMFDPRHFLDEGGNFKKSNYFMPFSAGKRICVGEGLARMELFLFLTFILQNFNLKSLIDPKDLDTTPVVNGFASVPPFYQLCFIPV
Description: as §3

[4] = Metabolism of compounds, human liver microsomes; assay type: in vitro ADME; conditions: 1 μM compound, 0.3 mg/ml protein, 60 minutes at 37° C.; for half-life at 1 μM: human, pooled liver microsomes, read-out: Microsomes t1/2 (mins) Human
Description: as §4

[5] = tested on: human colon adeno-carcinoma cell line Caco-2 or sub-clone TC7; assay: Cell permeability of compounds (Caco-2 or TC7 monolayers); assay type: in vitro ADME; conditions: 10 μM; for Cell Perm A-B/B-A: ratio of Papp A-B to B-A, 60 minutes
Description: (§5) These were measured using the accepted in vitro intestinal epithelial model using either the human colon adeno-carcinoma cell line Caco-2 or a sub-clone of this cell line, TC7. The apparent permeability coefficient (Papp) was determined in the apical-to-basolateral (A-B) and the B-A directions across cell monolayers cultured on 96-well polycarbonate membrane filters. Compounds were tested at 10 μM with a final DMSO concentration of 1%. The assay plate was incubated for 60 minutes at 37° C. with gentle shaking. Samples were taken at time zero from the donor side and at the end of the incubation from both donor and receiver sides. Samples were analysed by HPLC-MS/MS. The Papp value (expressed as 10^−6 cm/sec) was then calculated based on the appearance rate of the compound in the receiver side (Gres, M. C. et al. (1998) Pharm. Res., 15, 726-733).

[6] = as above; assay type: in vitro ADME, human; conditions: human, Caco-2, apical-to-basolateral, 60 minutes at 37° C., read-out: Cell Perm A-B
Description: as §5

CYP2C9 = molecular target: T4, CYP2C9 (Homo sapiens, UniProt P11712); assay: Inhibition of cytochrome P450 (P450-Glo) CYP2C9; assay type: biochemical; conditions: human recombinant enzyme, read-out: CYP450 Inhibition (IC50 microM) 2C9
T4 construct: purchased Promega Corporation
T4 sequence (P11712 whole entry): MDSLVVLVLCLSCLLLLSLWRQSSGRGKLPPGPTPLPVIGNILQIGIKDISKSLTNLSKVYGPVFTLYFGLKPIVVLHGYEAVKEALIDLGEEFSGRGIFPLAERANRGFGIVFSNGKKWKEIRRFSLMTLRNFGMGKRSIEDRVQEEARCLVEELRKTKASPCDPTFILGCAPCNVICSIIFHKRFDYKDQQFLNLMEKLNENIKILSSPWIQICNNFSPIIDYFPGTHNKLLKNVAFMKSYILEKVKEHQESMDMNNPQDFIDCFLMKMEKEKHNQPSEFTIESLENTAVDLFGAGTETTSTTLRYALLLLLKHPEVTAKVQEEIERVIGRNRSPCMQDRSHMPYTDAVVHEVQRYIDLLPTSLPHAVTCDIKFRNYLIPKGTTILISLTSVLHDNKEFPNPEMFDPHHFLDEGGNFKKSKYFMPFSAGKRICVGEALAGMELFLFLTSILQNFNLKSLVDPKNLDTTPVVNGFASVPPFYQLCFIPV
Description: as §3

CYP2D6 = molecular target: T5, CYP2D6 (Homo sapiens, UniProt P10635); assay: Inhibition of cytochrome P450 (P450-Glo) CYP2D6; assay type: biochemical; conditions: human recombinant enzyme, read-out: CYP450 Inhibition (IC50 microM) 2D6
T5 construct: purchased Promega Corporation
T5 sequence (P10635 whole entry): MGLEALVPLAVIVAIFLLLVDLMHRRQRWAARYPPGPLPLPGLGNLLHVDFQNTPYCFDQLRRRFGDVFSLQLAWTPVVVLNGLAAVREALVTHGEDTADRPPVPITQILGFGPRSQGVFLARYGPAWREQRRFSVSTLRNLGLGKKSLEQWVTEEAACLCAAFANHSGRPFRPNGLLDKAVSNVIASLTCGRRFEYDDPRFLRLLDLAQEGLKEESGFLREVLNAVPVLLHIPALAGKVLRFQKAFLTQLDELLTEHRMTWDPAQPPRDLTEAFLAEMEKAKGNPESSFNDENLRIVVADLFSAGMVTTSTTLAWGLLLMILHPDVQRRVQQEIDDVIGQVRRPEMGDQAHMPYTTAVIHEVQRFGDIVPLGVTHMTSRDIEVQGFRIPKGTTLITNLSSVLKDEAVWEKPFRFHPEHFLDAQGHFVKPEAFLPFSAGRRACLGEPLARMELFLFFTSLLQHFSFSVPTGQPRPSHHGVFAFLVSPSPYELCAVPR
Description: as §3

[7] = **Level of TNF for Aβ(1-42) alone: 13184 pg/mL
[8] = Table 1, identification of the active enantiomer, J774.2 cells, read-out: IC50 measured by inhibition of Nitric Oxide release
[9] = Table 2, J774.2 cells, read-out: IC50 (μM) NO
[10] = *Level of TNF for Aβ(1-42) alone: 9699 pg/mL

IC50 [1, 7] [µM]	IC50 [2, 8] [µM]	IC50 [2, 9] [µM]	IC50 (CYP3A4) [µM]	half-life at 1 μM [3] [min]	IC50 [1, 10] [µM]	IC50 (CYP1A2) [µM]	IC50 (CYP2C19) [µM]	half-life at 1 μM [4] [min]	Cell Perm A-B/B-A [5]	Papp A→B at 60 min, 10 μM [6] [×10⁻⁶ cm/s]	IC50 (CYP2C9) [µM]	IC50 (CYP2D6) [µM]	Microsomes t1/2 (mins) Rat [3] [min]	Microsomes t1/2 (mins) Human [4] [min]	Cell Perm (Papp 10^−6 cm s^−1) A-B ([5]; apical-to-basolateral, 60 minutes at 37° C.)	melting point [°C]	Structure (SMILES)
5.5	3	3	–	–	–	–	–	–	–	–	–	–	–	–	–	–	Cc1nc2ncnn2c2c1CCN2C(C)c1ccccc1 (single isomer, unassigned) [Compound 4]
3.2	–	0.8	19	60	0.91	> 20	> 20	> 60	0.37	72	> 20	> 20	–	–	–	–	Cc1nc2ncnn2c2c1CCN2[C@H](c1ccc(F)cc1)C(F)(F)F [Compound 2, (R)-5-Methyl-8-[2,2,2-trifluoro-1-(4-fluorophenyl)ethyl]-7,8-dihydro-6H-pyrrolo[3,2e][1,2,4]triazolo[1,5-a]pyrimidine]
–	–	–	0.83	–	–	99	7	–	0.85	–	27	15	15	>60	33 10^−6 cm s^−1	–	Cc1nc2ncnn2c2c1CCN2[C@@H](C)c1ccc(F)cc1 [Compound 7, (S)-8-[1-(4-Fluorophenyl)ethyl]-5-methyl-7,8-dihydro-6H-pyrrolo [3,2e][1,2,4]triazolo[1,5-a]pyrimidine]
–	–	1.1	8	35	1.44	> 20	> 10	> 60	0.55	35	14	> 20	–	–	–	153 to 155	Cc1nc2ncnn2c2c1CCN2[C@H](c1ccccc1)C(F)(F)F [Compound 1, (R)-5-Methyl-8-[2,2,2-trifluoro-1-phenylethyl]-7,8-dihydro-6H-pyrrolo[3,2e][1,2,4]-triazolo[1,5-a]pyrimidine]
–	30	–	–	–	–	–	–	–	–	–	–	–	–	–	–	–	Cc1nc2ncnn2c2c1CCN2[C@H](C)c1ccccc1 [Compound 6, (R)-8-[1-(Phenyl)ethyl]-5-methyl-7,8-dihydro-6H-pyrrolo[3,2e][1,2,4]triazolo[1,5-a]pyrimidine]
2.3	1.5	1.5	0.53	15	–	> 100	13	> 60	0.85	35	> 100	21	–	–	–	–	Cc1nc2ncnn2c2c1CCN2[C@@H](C)c1ccccc1 [Compound 5, (S)-8-[1-(Phenyl)ethyl]-5-methyl-7,8-dihydro-6H-pyrrolo[3,2e][1,2,4]triazolo[1,5-a]pyrimidine]
